Measured values as given in EP4755396A1, “TREATMENT OF P53 GENE MUTATION OR DEFECT NEGATIVE CANCER AND TUMOR PATIENTS” (Ascentawits Pharmaceuticals, Ltd., priority 2023, dated 2025).
“And” between values parts separate entries of the source, which are not always exact repeats. Identical values can stand only once.

System: liver cancer
Assay: Phase II clinical trial of AST-3424 (CTR20191399)
Assay type: in vivo, human
Text: The clinical trial registration number is CTR20191399.
• 1. Male or female, aged ≥18 years old. • 2. Histopathologically confirmed advanced HCC that cannot be controlled by surgical resection or local therapy. • 3. History of prior standard systemic therapy including, but not limited to, Sorafenib and/or Oxaliplatin-based systemic chemotherapy, Lenvatinib, Regorafenib and/or Nivolumab, who have experienced disease progression, toxicity intolerance, or refusal to continue treatment with these drugs. • 4. At least one measurable lesion meeting RECIST 1.1 criteria. A lesion with a history of prior radiation therapy shall not be regarded as the measurable lesion unless a definite radiological progression is observed after radiation therapy. • 5. […] Eastern Cooperative Oncology Group (ECOG) performance status score of 0 or 1. • 7. Expected survival time ≥ 12 weeks. • 8. With or without HBV or HCV infection. a. For subjects with HBV infection, HBV-DNA level shall be <2,000 IU/ml, and antiviral therapy with entecavir, tenofovir disoproxil fumarate, or tenofovir alafenamide fumarate shall be administered according to the national guidelines for the prevention and treatment of chronic hepatitis B. The therapy shall be maintained during the study and continued for 6 months after the last dose of the study drug. b. For subjects with HCV infection (in the presence of detectable HCV-RNA or anti-HCV antibodies), treatment may be conducted according to medical practice. • 9. Child-Pugh score ≤ 6 points. • 10. No history of hepatic encephalopathy. • 11. Prior to the initiation of the study drug, all toxicities from previous anticancer therapies (except alopecia, fatigue, or peripheral neuropathy) shall have returned to Grade 1 or baseline levels (NCI CTCAE Version 5). • 12. Subject's laboratory tests shall meet the following criteria. During 14 days before screening laboratory tests, no correction of indicators by blood transfusion, hematopoietic growth factor infusion or albumin infusion is allowed to meet the inclusion criteria: a. Hemoglobin ≥ 90 g/L; b. Platelet count ≥ 80 × 10^9/L; c. Absolute neutrophil count (ANC) ≥ 1.5 × 10^9/L; d. Serum total bilirubin ≤ 3 mg/dL; E. ALT and AST ≤ 5.0 × ULN; f. International normalized ratio (INR) ≤ 2.3 or prothrombin time prolongation ≤ 6 seconds; g. Albumin ≥ 29 g/L; h. Creatinine clearance > 50 mL/min as measured according to the Cockcroft-Gault equation. • 13. No history of alcohol, drug or substance abuse within the past year. • 14. Fertile female subjects shall be in non-lactating and have a negative pregnancy test result within 5 days prior to the initiation of treatment (the subject with a positive urine pregnancy test result needs to be reconfirmed by a serum pregnancy test). • 15. Fertile female and male subjects shall agree to use effective contraceptive measures (e.g. surgical sterilization or condom or diaphragm contraception combined with spermicidal gel or intrauterine contraceptive device [IUD], etc.) with their partners from the start of study participation until 6 months after the last dose of the study drug. • 16. Voluntary participation in this study, fully understanding of the relevant risks, good compliance, and signing the informed consent. Subjects may also sign an informed consent form for future biomedical research (FBR). However, the subjects who would not participate in FBR are still allowed participate in the main trial.
• 1. Untreated active central nervous system (CNS) metastases or leptomeningeal disease. Subjects with CNS metastases that have been adequately treated and confirmed to be stable for at least 4 weeks during screening by clinical tests and brain imaging (MRI or CT) are allowed to participate in the study. • 2. […]

[1] = 8 subjects who completed efficacy evaluation, liver cancer, 6 mg/m^2 day 1 and day 8 of 21-day cycle, as of July 21, 2023
[2] = subgroup of 4 cases negative (-) for p53 gene mutation or defect, liver cancer, 6 mg/m^2 day 1 and day 8 of 21-day cycle, as of July 21, 2023

In the case of `C[C@H](OP(=O)(N1CC1)N1CC1)c1ccc([N+](=O)[O-])c(Oc2cccc(C(=O)N(C)C)c2)c1` [AST-3424], the “overall DCR” value (8 evaluated liver cancer subjects, 6 mg/m^2 day 1 and day 8 of 21-day cycle, as of July 21, 2023) is reported as 75%, the “subjects achieved PD” value [1] is reported as 25% and the “subjects achieved PR” value [1] is reported as 12.5%. For the same compound, the “subjects achieved SD” value [1] was 62.5%, the ORR (overall, 8 evaluated liver cancer subjects, 6 mg/m^2 day 1 and day 8 of 21-day cycle, as of July 21, 2023) was 12.5% and the Efficacy evaluation (per case, 3 subjects with positive P53 mutation, unclear in whether it affects protein expression (VUS) (Table 10), as of March 11, 2024) was “SD, lesion increase”. For the same compound, the PFS (per case, 8 P53 mutation-positive (MUT) subjects (Table 8), 6 mg/m^2 day 1 and day 8 of 21-day cycle, as of March 11, 2024) was 1.4 months and 1.6 months and 1.5 months and 1.2 months, the DCR [2] was 75% and the ORR [2] was 25%. For the same compound, the DCR (subgroup of 4 cases positive (+) for p53 gene mutation or defect, liver cancer, 6 mg/m^2 day 1 and day 8 of 21-day cycle, as of July 21, 2023) was 75%.
